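Cells were grown in 96-well plates and exposed to each compound for 48 hours at five concentrations; endpoints were interpolated linearly between bracketing concentrations, or set to the highest concentration if not reached. At the GI50, growth is halved. At the TGI there is no net growth.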
What follows are compounds tested on SK-MEL-2 melanoma (assay: inhibition of tumour cell growth, NCI panel, 48 h).

Point of comparison: Cc1nc2c(nc1C)-c1[nH]c3c(c1C(=O)C2=O)CCCC3=O, TGI 3.29 µM. Against it:
- Cn1c(=O)c2c(nc(Cc3ccccc3)n2CC(=O)O)n(C)c1=O — higher, > 100 µM
- C=CCCCCOc1ccccc1-c1cnc(OCCCCC=C)n1C — 1.8-fold higher, 5.88 µM
- CC(C)C(=O)OCC1OC(n2c(Br)nc3c(=O)[nH]c(N)nc32)C(OC(=O)C(C)C)C1OC(=O)C(C)C (configuration not stated) — higher, > 100 µM
- C[C@H](CCC(=O)O)[C@H]1CC[C@H]2[C@@H]3CC[C@@H]4C[C@H](O)CC[C@]4(C)[C@H]3C[C@H](O)[C@]12C — higher, > 100 µM
- COC(=O)/C=C(\C)CC(O)/C=C(\C)CCC=C(C)C (configuration not stated) — 22-fold higher, 73.7 µM

For C=CCCCCOc1ccccc1-c1cnc(OCCCCC=C)n1C, the GI50 was 2.56 µM.

These compounds were tested on SK-MEL-28 melanoma (assay: inhibition of tumour cell growth, NCI panel, 48 h).

Point of comparison: Cc1nc2c(nc1C)-c1[nH]c3c(c1C(=O)C2=O)CCCC3=O, TGI 3.16 µM. Against it:
- CCCCCCOC(=O)/C=C/[C@]1(CO)C/C(=C/CC(C(C)C)C(C)C)C(=O)O1 — 7.3-fold higher, 23.2 µM
- Cn1c(=O)c2c(nc(Cc3ccccc3)n2CC(=O)O)n(C)c1=O — higher, > 100 µM
- C=CCCCCOc1ccccc1-c1cnc(OCCCCC=C)n1C — 10-fold higher, 31.6 µM
- C[C@H](CCC(=O)O)[C@H]1CC[C@H]2[C@@H]3CC[C@@H]4C[C@H](O)CC[C@]4(C)[C@H]3C[C@H](O)[C@]12C — higher, > 100 µM
- COC(=O)/C=C(\C)CC(O)/C=C(\C)CCC=C(C)C (configuration not stated) — higher, > 100 µM

C=CCCCCOc1ccccc1-c1cnc(OCCCCC=C)n1C gave a GI50 of 4.51 µM.

The compounds below were run on SK-MEL-5 melanoma (assay: inhibition of tumour cell growth, NCI panel, 48 h).

Point of comparison: C=CCCCCOc1ccccc1-c1cnc(OCCCCC=C)n1C, TGI 13.7 µM. Against it:
- CCCCCCOC(=O)/C=C/[C@]1(CO)C/C(=C/CC(C(C)C)C(C)C)C(=O)O1 — within 1.5-fold, 20.3 µM
- Cc1nc2c(nc1C)-c1[nH]c3c(c1C(=O)C2=O)CCCC3=O — 4.5-fold lower, 3.02 µM
- Cn1c(=O)c2c(nc(Cc3ccccc3)n2CC(=O)O)n(C)c1=O — higher, > 100 µM
- C[C@H](CCC(=O)O)[C@H]1CC[C@H]2[C@@H]3CC[C@@H]4C[C@H](O)CC[C@]4(C)[C@H]3C[C@H](O)[C@]12C — higher, > 100 µM
- COC(=O)/C=C(\C)CC(O)/C=C(\C)CCC=C(C)C (configuration not stated) — 3.1-fold higher, 42.7 µM

In the case of C=CCCCCOc1ccccc1-c1cnc(OCCCCC=C)n1C, the GI50 is reported as 3.69 µM.

These compounds were tested on SK-OV-3 ovarian (assay: inhibition of tumour cell growth, NCI panel, 48 h).

Point of comparison: C[C@H](CCC(=O)O)[C@H]1CC[C@H]2[C@@H]3CC[C@@H]4C[C@H](O)CC[C@]4(C)[C@H]3C[C@H](O)[C@]12C, TGI 78.1 µM. Against it:
- CCCCCCOC(=O)/C=C/[C@]1(CO)C/C(=C/CC(C(C)C)C(C)C)C(=O)O1 — 2.1-fold lower, 37.7 µM
- Cc1nc2c(nc1C)-c1[nH]c3c(c1C(=O)C2=O)CCCC3=O — 11-fold lower, 6.87 µM
- C=CCCCCOc1ccccc1-c1cnc(OCCCCC=C)n1C — 4-fold lower, 19.7 µM
- CC(C)C(=O)OCC1OC(n2c(Br)nc3c(=O)[nH]c(N)nc32)C(OC(=O)C(C)C)C1OC(=O)C(C)C (configuration not stated) — higher, > 100 µM
- COC(=O)/C=C(\C)CC(O)/C=C(\C)CCC=C(C)C (configuration not stated) — higher, > 100 µM

For C=CCCCCOc1ccccc1-c1cnc(OCCCCC=C)n1C, the GI50 was 3.96 µM.

Each compound was assayed on SN12C renal (assay: inhibition of tumour cell growth, NCI panel, 48 h).

Point of comparison: Cc1nc2c(nc1C)-c1[nH]c3c(c1C(=O)C2=O)CCCC3=O, TGI 3.28 µM. Against it:
- Cn1c(=O)c2c(nc(Cc3ccccc3)n2CC(=O)O)n(C)c1=O — higher, > 100 µM
- C=CCCCCOc1ccccc1-c1cnc(OCCCCC=C)n1C — 7.3-fold higher, 23.9 µM
- CC(C)C(=O)OCC1OC(n2c(Br)nc3c(=O)[nH]c(N)nc32)C(OC(=O)C(C)C)C1OC(=O)C(C)C (configuration not stated) — higher, > 100 µM
- C[C@H](CCC(=O)O)[C@H]1CC[C@H]2[C@@H]3CC[C@@H]4C[C@H](O)CC[C@]4(C)[C@H]3C[C@H](O)[C@]12C — higher, > 100 µM
- COC(=O)/C=C(\C)CC(O)/C=C(\C)CCC=C(C)C (configuration not stated) — higher, > 100 µM

Compound C=CCCCCOc1ccccc1-c1cnc(OCCCCC=C)n1C has a GI50 of 5.51 µM.

Each compound was assayed on SNB-19 CNS (assay: inhibition of tumour cell growth, NCI panel, 48 h).

Point of comparison: C=CCCCCOc1ccccc1-c1cnc(OCCCCC=C)n1C, TGI 38.1 µM. Against it:
- CCCCCCOC(=O)/C=C/[C@]1(CO)C/C(=C/CC(C(C)C)C(C)C)C(=O)O1 — 1.7-fold lower, 22.6 µM
- Cc1nc2c(nc1C)-c1[nH]c3c(c1C(=O)C2=O)CCCC3=O — 6.8-fold lower, 5.58 µM
- Cn1c(=O)c2c(nc(Cc3ccccc3)n2CC(=O)O)n(C)c1=O — higher, > 100 µM
- CC(C)C(=O)OCC1OC(n2c(Br)nc3c(=O)[nH]c(N)nc32)C(OC(=O)C(C)C)C1OC(=O)C(C)C (configuration not stated) — higher, > 100 µM
- C[C@H](CCC(=O)O)[C@H]1CC[C@H]2[C@@H]3CC[C@@H]4C[C@H](O)CC[C@]4(C)[C@H]3C[C@H](O)[C@]12C — higher, > 100 µM
- COC(=O)/C=C(\C)CC(O)/C=C(\C)CCC=C(C)C (configuration not stated) — higher, > 100 µM

C=CCCCCOc1ccccc1-c1cnc(OCCCCC=C)n1C was tested, and the GI50 was 7.39 µM.

The compounds below were run on SNB-75 CNS (assay: inhibition of tumour cell growth, NCI panel, 48 h).

Point of comparison: C=CCCCCOc1ccccc1-c1cnc(OCCCCC=C)n1C, TGI 11.6 µM. Against it:
- CCCCCCOC(=O)/C=C/[C@]1(CO)C/C(=C/CC(C(C)C)C(C)C)C(=O)O1 — 2.4-fold higher, 27.7 µM
- Cc1nc2c(nc1C)-c1[nH]c3c(c1C(=O)C2=O)CCCC3=O — 3.5-fold lower, 3.31 µM
- Cn1c(=O)c2c(nc(Cc3ccccc3)n2CC(=O)O)n(C)c1=O — higher, > 100 µM
- CC(C)C(=O)OCC1OC(n2c(Br)nc3c(=O)[nH]c(N)nc32)C(OC(=O)C(C)C)C1OC(=O)C(C)C (configuration not stated) — higher, > 100 µM
- C[C@H](CCC(=O)O)[C@H]1CC[C@H]2[C@@H]3CC[C@@H]4C[C@H](O)CC[C@]4(C)[C@H]3C[C@H](O)[C@]12C — higher, > 100 µM
- COC(=O)/C=C(\C)CC(O)/C=C(\C)CCC=C(C)C (configuration not stated) — 4.9-fold higher, 57.1 µM

Work on C=CCCCCOc1ccccc1-c1cnc(OCCCCC=C)n1C yielded a GI50 of 2.52 µM.

Each compound was assayed on SR leukemia (assay: inhibition of tumour cell growth, NCI panel, 48 h).

Work on Cc1nc2c(nc1C)-c1[nH]c3c(c1C(=O)C2=O)CCCC3=O yielded a TGI of 6.4 µM.

— PubChem BioAssay (NCI)
